We go through four compounds from patent US4495104A, “Quinone carboxylic acids and ester derivatives” (Takeda Chemical Industries, Ltd., priority 1980, dated 1985).

One assay concerns succinate oxidase. Kind of assay: Mitochondrial electron-transport activity determined as succinate oxidase activity in ubiquinone-depleted enzyme preparations. It is filed as biochemical. Conditions: level of addition 10 n moles; ubiquinone-depleted enzyme preparation; control 19.34 ± 1.42. On the procedure: ^(1) Ubiquinonedepleted enzyme preparations were prepared in
accordance with Lester and Fleischer (Biochem. Biophys. Acta., 47,358-377
1961). The electrontransport activity was determined based on succinate

The test system of another assay is SRS-A production. Kind of assay: Inhibition of SRS-A production and release in sensitized guinea-pig lung fragments (egg albumin antigen). It is filed as cell-based, quinea-pig. Conditions: lung fragments sensitized with egg albumin, compound dissolved in ethanol or dimethyl sulfoxide, read-out: Inhibitory effect on SRS-A production (%); for inhibition at 10 µM: concentration 10 μM. On the procedure:
Further, we investigated the effect of the present compound (I) on the production and release of the slow reacting substance of anaphylaxis (hereinafter, SRS-A) which has been mentioned as a main factor in asthma. Thus, in accordance with the method of Orange and Moore (J. Immunol., 116, 392-397, 1976), the present compound (I) was added to a quinea-pig lung fragments sensitized with egg albumin as the antigen, and the amount of SRS-A produced and released as a consequence was assayed by the method of Brocklehurst (J. Physiol., 151, 416-435, 1960).
^(1) The compound was added as dissolved in ethanol or dimethyl
^(2) The inhibitory effect on SRSA production was expressed as the %
inhibition of production and release of SRSA.

Take `COC1=C(OC)C(=O)C(CCCCCCCCCCCCC(=O)O)=C(C)C1=O` [R:H, n:12, 6-(12-carboxydodecyl)-2,3-dimethoxy-5-methyl-1,4-benzoquinone]: in the assay on succinate oxidase, the “Succinate oxidase activity [oxygen consumption per mg enzyme protein during 1 minute (n atoms oxygen)]” value was 96.05 n atoms oxygen. For the same compound, in the assay with SRS-A production (concentration 1 μM), the inhibition at 1 µM is 60 ± 3.3%. In addition, the inhibition at 10 µM with SRS-A production came to 87.2 ± 5.5%.

With `COC1=C(OC)C(=O)C(CCCCCCCCCCCCCCCCCC(=O)O)=C(C)C1=O` [R:H, n:17, 6-(17-carboxyheptadecyl)-2,3-dimethoxy-5-methyl-1,4-benzoquinone], the “Succinate oxidase activity [oxygen consumption per mg enzyme protein during 1 minute (n atoms oxygen)]” value in the assay on succinate oxidase was determined as 112.05 n atoms oxygen. Further, the inhibition at 10 µM with SRS-A production is 82.8 ± 4.4%.

Take `COC1=C(OC)C(=O)C(CCCCCCCCCCCCCCCCCCCCCC(=O)O)=C(C)C1=O` [R:H, n:21, 6-(21-carboxyheneicosyl)-2,3-dimethoxy-5-methyl-1,4-benzoquinone]: the inhibition at 10 µM in the assay on SRS-A production amounted to 80.5 ± 0.5%.

Regarding `COC(=O)CCCCCCCCCCCCC1=C(C)C(=O)C(OC)=C(OC)C1=O` [n:12 R:CH3, 2,3-dimethoxy-6-(12-methoxycarbonyldodecyl)-5-methyl-1,4-benzoquinone], the “Succinate oxidase activity [oxygen consumption per mg enzyme protein during 1 minute (n atoms oxygen)]” value in the assay on succinate oxidase is 146.10 n atoms oxygen.
